{
  "source": "the supplement of paper PMC10307832",
  "experiment_in_all_cases": "relative viability (nuclei count vs DMSO), 5 days (fraction); higher = more cells survive",
  "key": {"A549": {"system": "A549", "procedure,_shortened": "(§1)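 Medians of duplicate plates are given as relative viability. That measure is the nuclei count in treated wells divided by the count in vehicle wells. Counts were taken on 4× images of lung cancer cell lines in 1536-well plates, 5 days after pin-tool dosing the day after seeding with one drug alone or a fixed anchor-drug dose plus five library-drug doses (not always all listed) in √10 steps.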"}, "ABC-1": {"system": "ABC-1", "procedure,_shortened": "as §1"}, "Calu-6": {"system": "Calu-6", "procedure,_shortened": "as §1"}, "EBC-1": {"system": "EBC-1", "procedure,_shortened": "as §1"}, "EKVX": {"system": "EKVX", "procedure,_shortened": "as §1"}, "IA-LM": {"system": "IA-LM", "procedure,_shortened": "as §1"}, "NCI-H1299": {"system": "NCI-H1299", "procedure,_shortened": "as §1"}, "NCI-H1623": {"system": "NCI-H1623", "procedure,_shortened": "as §1"}, "NCI-H1703": {"system": "NCI-H1703", "procedure,_shortened": "as §1"}, "NCI-H1993": {"system": "NCI-H1993", "procedure,_shortened": "as §1"}, "NCI-H2085": {"system": "NCI-H2085", "procedure,_shortened": "as §1"}, "NCI-H2126": {"system": "NCI-H2126", "procedure,_shortened": "as §1"}, "RERF-LC-KJ": {"system": "RERF-LC-KJ", "procedure,_shortened": "as §1"}},
  "data": [
    {"smiles": "O=c1cc(N2CCOCC2)oc2c(-c3cccc4c3sc3ccccc34)cccc12", "note": "+ COc1cc2c(Oc3ccc(NC(=O)C4(C(=O)Nc5ccc(F)cc5)CC4)cc3F)ccnc2cc1OCCCN1CCOCC1 [Foretinib] (partner 0.25 µM)", "values": [
      {"measurement": "relative viability", "setting": "A549; first compound 0.01 µM", "result": 0.936},
      {"measurement": "relative viability", "setting": "A549; first compound 0.03162 µM", "result": 1},
      {"measurement": "relative viability", "setting": "A549; first compound 0.1 µM", "result": 0.99},
      {"measurement": "relative viability", "setting": "A549; first compound 0.3162 µM", "result": 0.912},
      {"measurement": "relative viability", "setting": "A549; first compound 1 µM", "result": 0.994},
      {"measurement": "relative viability", "setting": "ABC-1; first compound 0.01 µM", "result": 1.03},
      {"measurement": "relative viability", "setting": "ABC-1; first compound 0.03162 µM", "result": 0.943},
      {"measurement": "relative viability", "setting": "ABC-1; first compound 0.1 µM", "result": 1.48},
      {"measurement": "relative viability", "setting": "ABC-1; first compound 0.3162 µM", "result": 1.11},
      {"measurement": "relative viability", "setting": "ABC-1; first compound 1 µM", "result": 1.02},
      {"measurement": "relative viability", "setting": "Calu-6; first compound 0.01 µM", "result": 0.932},
      {"measurement": "relative viability", "setting": "Calu-6; first compound 0.03162 µM", "result": 0.895},
      {"measurement": "relative viability", "setting": "Calu-6; first compound 0.1 µM", "result": 0.891},
      {"measurement": "relative viability", "setting": "Calu-6; first compound 0.3162 µM", "result": 0.888},
      {"measurement": "relative viability", "setting": "Calu-6; first compound 1 µM", "result": 0.839},
      {"measurement": "relative viability", "setting": "EBC-1; first compound 0.01 µM", "result": 0.0963},
      {"measurement": "relative viability", "setting": "EBC-1; first compound 0.03162 µM", "result": 0.0939},
      {"measurement": "relative viability", "setting": "EBC-1; first compound 0.1 µM", "result": 0.0965},
      {"measurement": "relative viability", "setting": "EBC-1; first compound 0.3162 µM", "result": 0.128},
      {"measurement": "relative viability", "setting": "EBC-1; first compound 1 µM", "result": 0.102},
      {"measurement": "relative viability", "setting": "EKVX; first compound 0.01 µM", "result": 0.973},
      {"measurement": "relative viability", "setting": "EKVX; first compound 0.03162 µM", "result": 1.05},
      {"measurement": "relative viability", "setting": "EKVX; first compound 0.1 µM", "result": 0.818},
      {"measurement": "relative viability", "setting": "EKVX; first compound 0.3162 µM", "result": 0.628},
      {"measurement": "relative viability", "setting": "EKVX; first compound 1 µM", "result": 0.59},
      {"measurement": "relative viability", "setting": "IA-LM; first compound 0.01 µM", "result": 1.1},
      {"measurement": "relative viability", "setting": "IA-LM; first compound 0.03162 µM", "result": 1.11},
      {"measurement": "relative viability", "setting": "IA-LM; first compound 0.1 µM", "result": 1.23},
      {"measurement": "relative viability", "setting": "IA-LM; first compound 0.3162 µM", "result": 1.06},
      {"measurement": "relative viability", "setting": "IA-LM; first compound 1 µM", "result": 1.25},
      {"measurement": "relative viability", "setting": "NCI-H1299; first compound 0.01 µM", "result": 1.04},
      {"measurement": "relative viability", "setting": "NCI-H1299; first compound 0.03162 µM", "result": 1.11},
      {"measurement": "relative viability", "setting": "NCI-H1299; first compound 0.1 µM", "result": 1.08},
      {"measurement": "relative viability", "setting": "NCI-H1299; first compound 0.3162 µM", "result": 1.13},
      {"measurement": "relative viability", "setting": "NCI-H1299; first compound 1 µM", "result": 1.04},
      {"measurement": "relative viability", "setting": "NCI-H1623; first compound 0.01 µM", "result": 0.84},
      {"measurement": "relative viability", "setting": "NCI-H1623; first compound 0.03162 µM", "result": 0.9},
      {"measurement": "relative viability", "setting": "NCI-H1623; first compound 0.1 µM", "result": 0.559},
      {"measurement": "relative viability", "setting": "NCI-H1623; first compound 0.3162 µM", "result": 0.849},
      {"measurement": "relative viability", "setting": "NCI-H1623; first compound 1 µM", "result": 0.862},
      {"measurement": "relative viability", "setting": "NCI-H1703; first compound 0.01 µM", "result": 0.333},
      {"measurement": "relative viability", "setting": "NCI-H1703; first compound 0.03162 µM", "result": 0.314},
      {"measurement": "relative viability", "setting": "NCI-H1703; first compound 0.1 µM", "result": 0.352},
      {"measurement": "relative viability", "setting": "NCI-H1703; first compound 0.3162 µM", "result": 0.371},
      {"measurement": "relative viability", "setting": "NCI-H1703; first compound 1 µM", "result": 0.296},
      {"measurement": "relative viability", "setting": "NCI-H1993; first compound 0.01 µM", "result": 0.681},
      {"measurement": "relative viability", "setting": "NCI-H1993; first compound 0.03162 µM", "result": 0.845},
      {"measurement": "relative viability", "setting": "NCI-H1993; first compound 0.1 µM", "result": 0.878},
      {"measurement": "relative viability", "setting": "NCI-H1993; first compound 0.3162 µM", "result": 0.765},
      {"measurement": "relative viability", "setting": "NCI-H1993; first compound 1 µM", "result": 0.748},
      {"measurement": "relative viability", "setting": "NCI-H2085; first compound 0.01 µM", "result": 0.96},
      {"measurement": "relative viability", "setting": "NCI-H2085; first compound 0.03162 µM", "result": 0.941},
      {"measurement": "relative viability", "setting": "NCI-H2085; first compound 0.1 µM", "result": 0.961},
      {"measurement": "relative viability", "setting": "NCI-H2085; first compound 0.3162 µM", "result": 0.912},
      {"measurement": "relative viability", "setting": "NCI-H2085; first compound 1 µM", "result": 0.944},
      {"measurement": "relative viability", "setting": "NCI-H2126; first compound 0.01 µM", "result": 1.16},
      {"measurement": "relative viability", "setting": "NCI-H2126; first compound 0.03162 µM", "result": 1.22},
      {"measurement": "relative viability", "setting": "NCI-H2126; first compound 0.1 µM", "result": 1.29},
      {"measurement": "relative viability", "setting": "NCI-H2126; first compound 0.3162 µM", "result": 1.2},
      {"measurement": "relative viability", "setting": "NCI-H2126; first compound 1 µM", "result": 1.24},
      {"measurement": "relative viability", "setting": "RERF-LC-KJ; first compound 0.01 µM", "result": 0.831},
      {"measurement": "relative viability", "setting": "RERF-LC-KJ; first compound 0.03162 µM", "result": 0.876},
      {"measurement": "relative viability", "setting": "RERF-LC-KJ; first compound 0.1 µM", "result": 0.91},
      {"measurement": "relative viability", "setting": "RERF-LC-KJ; first compound 0.3162 µM", "result": 0.852},
      {"measurement": "relative viability", "setting": "RERF-LC-KJ; first compound 1 µM", "result": 0.846}
    ]}
  ]
}
